Test results: patent publication US4970153A, “Method of producing acid urease and the use of the urease” (Nagase & Co., Ltd., priority 1987, dated 1990)
Like-named read-outs stand apart in the source and are kept apart here.

What was measured:
[1] = target: T1, acid-urease obtained by culturing Lactobacillus fermentum TK 1214 (Limosilactobacillus fermentum, UniProt P26929); experiment: Stabilization of acid urease by additives (treated at 65° C. for 10 minutes); format: biochemical; conditions: additive 1 mM, not added: 80
T1 sequence (P26929 1-573): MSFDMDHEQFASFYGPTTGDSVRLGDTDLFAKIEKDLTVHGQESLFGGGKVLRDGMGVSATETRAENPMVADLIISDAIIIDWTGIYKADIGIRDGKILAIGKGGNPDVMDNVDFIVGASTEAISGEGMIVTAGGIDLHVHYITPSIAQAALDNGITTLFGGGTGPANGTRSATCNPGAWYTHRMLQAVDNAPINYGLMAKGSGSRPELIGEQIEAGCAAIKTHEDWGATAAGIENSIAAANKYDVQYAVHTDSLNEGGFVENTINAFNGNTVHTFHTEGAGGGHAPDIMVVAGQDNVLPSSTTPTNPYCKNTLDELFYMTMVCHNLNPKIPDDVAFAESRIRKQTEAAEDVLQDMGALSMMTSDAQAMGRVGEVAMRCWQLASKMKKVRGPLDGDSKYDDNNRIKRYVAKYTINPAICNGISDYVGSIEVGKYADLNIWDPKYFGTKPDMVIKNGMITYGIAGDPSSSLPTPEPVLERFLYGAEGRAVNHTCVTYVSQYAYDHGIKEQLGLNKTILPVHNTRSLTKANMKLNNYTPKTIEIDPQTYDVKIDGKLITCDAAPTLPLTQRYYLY
T1 sequence (P26930 1-124 partner): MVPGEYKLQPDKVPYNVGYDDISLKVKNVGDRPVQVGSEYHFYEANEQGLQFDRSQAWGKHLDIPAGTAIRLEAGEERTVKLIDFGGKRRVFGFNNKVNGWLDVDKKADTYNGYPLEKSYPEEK
T1 sequence (P26931 1-100 partner): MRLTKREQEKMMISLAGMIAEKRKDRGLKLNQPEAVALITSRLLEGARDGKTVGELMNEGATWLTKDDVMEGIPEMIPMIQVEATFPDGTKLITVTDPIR
Description: (6) Stabilization (treated at 65° C. for 10 minutes):
(§1) by Colorimetric assay of ammonia formed by reaction with urea.
(§2) React at 37° C. for 10 minutes, add 0.2 ml of 1.0N H2 SO4 and stop the reaction. Take out a part of reaction solution and give coloring by Indophenol reagent. Measure the absorbance at 630 nm, and determine quantity of decomposed urea by assaying formed ammonia.

[2] = target: T1, acid-urease obtained by culturing Lactobacillus fermentum TK 1214; experiment: Substrate specificity of acid urease (colorimetric assay of ammonia formed); format: biochemical; conditions: substance used as substrate of acid urease
Description: (2) Substrate specificity:
as §1
(§3) 0.1M acetate buffer (pH 4.0): 0.6 ml
as §2
(§4) 1 unit activity (I.U.) of acid-urease is quantity of enzyme which decomposes 1 μmole of urea at 37° C., pH 4.0 for one minute.

[3] = target: T1, acid-urease obtained by culturing Lactobacillus fermentum TK 1214; experiment: Inhibition and activation of acid urease by additives; format: biochemical
Description: (5) Inhibition and activation:
as §1, §3, §2, §4

[4] = target: acid urease from Lactobacillus fermentum TK 1214 (Limosilactobacillus fermentum, UniProt P26929)
[5] = target: neutral urease from sword beans

Row | Structure (SMILES) | Relative activity (%) after heat treatment [1] [%] | relevant activity (%) [2] [%] | further results
1 | O=C(O)CN(CCN(CC(=O)O)CC(=O)O)CC(=O)O [EDTA-4Na] | 100 |  | 
2 | NC(N)=S [Thiourea] |  | 0 | 
3 | NO [Hydroxylamine] |  | 0 | 
4 | CCO [Ethanol] |  |  | Relative activity (%) [3]: 50%; Ki (inhibitor constant) value against ethanol [4]: about 40%; Ki (inhibitor constant) value against ethanol [5]: about 9%
5 | O[C@H](CS)[C@H](O)CS [Dithiothreitol] | 100 |  | 
6 | N[C@@H](CCC(=O)N[C@@H](CS)C(=O)NCC(=O)O)C(=O)O [Glutathione] | 100 |  | Relative activity (%) [3]: 100%
7 | O=C([O-])c1cc[c]([Hg][Cl])cc1 [p-Chloromercuricbenzoate] |  |  | Relative activity (%) ([3]; additive 0.05 mM): 50%
8 | O[C@H](CS)[C@@H](O)CS [Dithioerithritol] | 100 |  | 

Second part, led by results:

Row | Relative activity (%) after heat treatment [1] [%] | relevant activity (%) [2] [%] | Structure (SMILES) | further results
9 |  | 0 | O=C(NO)c1ccccc1 [Benzohydroxamic acid] | Relative activity (%) ([3]; additive 0.5 mM): 50%
10 |  | 0 | C=CCNC(N)=O [Allylurea] | 
11 | 100 |  | N[C@@H](CS)C(=O)O [Cysteine] | Relative activity (%) ([3]; additive 1 mM): 100%
12 |  | 0 | CCCCCCCC(=O)NO [Caprilohydroxamic acid] | Relative activity (%) ([3]; additive 0.04 mM): 50%
13 |  | 100 | NC(N)=O [Urea] | 
14 |  | 0 | CNC(N)=O [Methylurea] | 
15 |  | 0 | CCNC(N)=O [Ethylurea] | 
16 |  | 0 | O=C(NO)c1cccnc1 [Nicotinhydroxamic acid] | Relative activity (%) ([3]; additive 0.5 mM): 50%
17 |  | 0 | NC(=O)NO [Hydroxyurea] | 
18 | 100 |  | OCCS [Mercapto ethanol] | Relative activity (%) ([3]; additive 1 mM): 100%
